{"source": "patent US12427192B2", "about": "“Water soluble adjuvant and composition containing same” (Sumitomo Pharma Co., Ltd., priority 2019, dated 2025)", "key": {"[1]": {"system": "HLA-A*02:01 transgenic mouse", "assay": "Test 12: in vivo adjuvant activity, cocktail vaccine g (emulsified composition 2), IFNγ ELISPOT", "conditions": "added to cocktail vaccine g (emulsified composition 2); 0.04 nmol or 0.4 nmol per body, twice; FIG. 12 and 13", "procedure": "(§1) Evaluation of In Vivo Adjuvant Activity in HLA-A*02:01 Transgenic Mouse\nThe in vivo adjuvant activity of the compound of Example 1 was evaluated in the following procedure. To a cocktail vaccine (emulsified composition 2) comprising Compound of formula 4 prepared in Reference example 8 and Peptide SEQ ID No. 3 prepared in Reference example 3 (hereinafter, referred to as “cocktail vaccine g”) was added the compound prepared in Example 1 to prepare a vaccine. The vaccine was administered to a HLA-A*02:01 transgenic mouse, and the adjuvant activity of the vaccine was evaluated by the method of testing antigen-specific CTL induction.\n(§2) For example, the above emulsified composition 2 was prepared as follows. 95.8% (w/w) of medium-chain triglyceride (MYGLYOL 812), 3% (w/w) of PEG-30 dipolyhydroxy stearate, and 1.2% (w/w) of polysorbate 80 were mixed to prepare an oil-phase mixture. The amount of the preparation was adjusted as appropriate. Compound of formula 4 and Peptide SEQ ID No. 3 were mixed with pH 2.5 buffer (10 mM tartaric acid, 10% trehalose) to adjust each concentration to 3 mg/mL and 2.25 mg/mL, respectively. The prepared peptide dilution was mixed with an equal volume of the oil-phase mixture to give an emulsified product, cocktail vaccine g. […] Then, after removal of the supernatant from the wells, stained spots on the ELISPOT plate were counted."}, "[2]": {"system": "HLA-A*02:01 transgenic mouse", "assay": "Test 13: in vivo adjuvant activity, cocktail vaccine h (emulsified composition 3), IFNγ ELISPOT", "conditions": "added to cocktail vaccine h (emulsified composition 3); 0.04 nmol per body, twice; FIG. 14", "procedure": "as §1\nThe in vivo adjuvant activity of the compound of Example 1 was evaluated in the following procedure. To a cocktail vaccine (emulsified composition 3) comprising Compound of formula 4 prepared in Reference example 8 and Peptide SEQ ID No. 3 prepared in Reference example 3 (hereinafter, referred to as “cocktail vaccine h”) was added the compound prepared in Example 1 to prepare a vaccine. The vaccine was administered to a HLA-A*02:01 transgenic mouse, and the adjuvant activity of the vaccine was evaluated by the method of testing antigen-specific CTL induction.\nas §2, with “composition 3” for “composition 2”, “of isopropyl myristate,” for “of medium-chain triglyceride (MYGLYOL 812),”, “vaccine h.” for “vaccine g.”"}}, "data": [{"smiles": "CCCCCNc1nc(N)nc(C)c1Cc1ccc(CN(C)CCOCCOCCOCCOCCO)cc1OC", "note": "[Example 1, 1-(4-{[2-amino-4-methyl-6-(pentylamino)pyrimidin-5-yl]methyl}-3-methoxyphenyl)-2-methyl-5,8,11,14-tetraoxa-2-azahexadecan-16-ol·trifluoroacetate]", "values": [{"measurement": "CTL counts responsive to Peptide SEQ ID No. 1 or SEQ ID No. 4 compared with adding no compound", "setting": "[1]", "value": "more"}, {"measurement": "CTL counts responsive to Peptide SEQ ID No. 1 compared with adding no compound", "setting": "[2]", "value": "more"}]}]}
